Test system: CD24^+‐breast cancer cells sorted from MDA‐MB‐231
Assay: MTT assay in sorted breast cancer cells
Type: cell-based, human
Conditions: doxorubicin 0.01 μM + 1e 5 μM vs doxorubicin 0.01 μM alone
Description: To evaluate the cytotoxicity profile of the potential EGFR inhibitors (compounds) against TNBC cell lines—MDA‐MB‐231, MDA‐MB‐468, and control cell line HEK293, cells were seeded at a cell density of 5 × 10^3 cells/well in complete medium onto 96‐well plates. Here, the non‐tumoral human embryonic kidney (HEK293) epithelial cells have been utilized as a control cell line to compare the IC50 values of the compounds between cancerous and non‐cancerous cell lines with a big therapeutic window. The use of HEK293 cells as compared to other non‐cancerous cell lines are easy to maintain in culture and the results obtained from HEK293 are highly reproducible and consistent.[27] Briefly, the cells were incubated at 37°C for 12 h to attain morphology. After 12 h, cells were serum starved by replacing the complete media with media containing 2% FBS to synchronize the cells. […] All the experiments were performed thrice and the IC50 values of the compounds and Doxorubicin were calculated using GraphPad Prism software version 9 (San Diego, CA, USA). Similarly, the percent inhibition of the sorted cell populations by chemotherapeutic drug, doxorubicin in the absence/presence of potent compound 1e or standard EGFR inhibitor, PD153035 was evaluated utilizing GraphPad Prism Version 9 (San Diego, CA, USA).

c1cncc(C(c2c[nH]c3ccccc23)c2c[nH]c3ccccc23)c1 [1e]
increase of percent inhibition of cell proliferation versus doxorubicin alone: 1.8 folds

— paper PMC10961089, “Epidermal growth factor receptor inhibition potentiates chemotherapeutics‐mediated sensitization of metastatic breast cancer stem cells” (Cancer Reports, 2024)
